Key:
[1] = system: barnyardgrass (Echinochloa crus-galli); assay: Test A preemergence, barnyardgrass; type: in vivo; conditions: Echinochloa crus-galli, pre-emergence, 240 h, 0 to 100 scale (0 no effect, 100 complete control), read-out: Plant response rating, Barnyardgrass; for pest or weed control at 31 g/ha: 31 g ai/ha; for pest or weed control at 125 g/ha: 125 g ai/ha
kochia (Kochia scoparia) [2] = assay: Test A preemergence, kochia; type: in vivo; conditions: Bassia scoparia, pre-emergence, 240 h, 0 to 100 scale (0 no effect, 100 complete control), read-out: Plant response rating, Kochia; for pest or weed control at 31 g/ha: 31 g ai/ha; for pest or weed control at 125 g/ha: 125 g ai/ha
[3] = system: ragweed (common ragweed, Ambrosia elatior); assay: Test A preemergence, ragweed; type: in vivo; conditions: Ambrosia artemisiifolia, pre-emergence, 240 h, 0 to 100 scale (0 no effect, 100 complete control), read-out: Plant response rating, Ragweed; for pest or weed control at 31 g/ha: 31 g ai/ha; for pest or weed control at 125 g/ha: 125 g ai/ha
[4] = system: ryegrass, Italian (Italian ryegrass, Lolium multiflorum); assay: Test A preemergence, ryegrass, Italian; type: in vivo; conditions: Lolium multiflorum, pre-emergence, 240 h, 0 to 100 scale (0 no effect, 100 complete control), read-out: Plant response rating, Ryegrass, Italian; for pest or weed control at 31 g/ha: 31 g ai/ha; for pest or weed control at 125 g/ha: 125 g ai/ha
[5] = system: pigweed (Amaranthus retroflexus); assay: Test A preemergence, pigweed; type: in vivo; conditions: Amaranthus retroflexus, pre-emergence, 240 h, 0 to 100 scale (0 no effect, 100 complete control), read-out: Plant response rating, Pigweed; for pest or weed control at 31 g/ha: 31 g ai/ha; for pest or weed control at 125 g/ha: 125 g ai/ha
[6] = system: barnyardgrass (Echinochloa crus-galli); assay: Test A postemergence, barnyardgrass; type: in vivo; conditions: Echinochloa crus-galli, post-emergence, 240 h, 0 to 100 scale (0 no effect, 100 complete control), read-out: Plant response rating, Barnyardgrass; for pest or weed control at 31 g/ha: 31 g ai/ha; for pest or weed control at 125 g/ha: 125 g ai/ha
kochia (Kochia scoparia) [7] = assay: Test A postemergence, kochia; type: in vivo; conditions: Bassia scoparia, post-emergence, 240 h, 0 to 100 scale (0 no effect, 100 complete control), read-out: Plant response rating, Kochia; for pest or weed control at 31 g/ha: 31 g ai/ha; for pest or weed control at 125 g/ha: 125 g ai/ha
[8] = system: ragweed (common ragweed, Ambrosia elatior); assay: Test A postemergence, ragweed; type: in vivo; conditions: Ambrosia artemisiifolia, post-emergence, 240 h, 0 to 100 scale (0 no effect, 100 complete control), read-out: Plant response rating, Ragweed; for pest or weed control at 31 g/ha: 31 g ai/ha; for pest or weed control at 125 g/ha: 125 g ai/ha
[9] = system: ryegrass, Italian (Italian ryegrass, Lolium multiflorum); assay: Test A postemergence, ryegrass, Italian; type: in vivo; conditions: Lolium multiflorum, post-emergence, 240 h, 0 to 100 scale (0 no effect, 100 complete control), read-out: Plant response rating, Ryegrass, Italian; for pest or weed control at 31 g/ha: 31 g ai/ha; for pest or weed control at 125 g/ha: 125 g ai/ha
[10] = system: pigweed (Amaranthus retroflexus); assay: Test A postemergence, pigweed; type: in vivo; conditions: Amaranthus retroflexus, post-emergence, 240 h, 0 to 100 scale (0 no effect, 100 complete control), read-out: Plant response rating, Pigweed; for pest or weed control at 31 g/ha: 31 g ai/ha; for pest or weed control at 125 g/ha: 125 g ai/ha
[11] = system: wheat (Triticum aestivum); assay: Test A postemergence, wheat; type: in vivo; conditions: Triticum aestivum, post-emergence, 240 h, 0 to 100 scale (0 no effect, 100 complete control), read-out: Plant response rating, Wheat; for plant injury at 31 g/ha: 31 g ai/ha; for plant injury at 125 g/ha: 125 g ai/ha
corn (Zea mays) = assay: Test A postemergence, corn; type: in vivo; conditions: Zea mays, post-emergence, 240 h, 0 to 100 scale (0 no effect, 100 complete control); for Corn plant response rating (crop injury, 0 = no effect, 100 = complete kill) at 31 g/ha: 31 g ai/ha; for Corn plant response rating (crop injury, 0 = no effect, 100 = complete kill) at 125 g/ha: 125 g ai/ha
[12] = system: blackgrass (Alopecurus myosuroides); assay: Test A postemergence, blackgrass; type: in vivo; conditions: Alopecurus myosuroides, post-emergence, 240 h, 0 to 100 scale (0 no effect, 100 complete control), read-out: Plant response rating, Blackgrass; for pest or weed control at 31 g/ha: 31 g ai/ha; for pest or weed control at 125 g/ha: 125 g ai/ha
[13] = system: galium (catchweed bedstraw, Galium aparine); assay: Test A postemergence, galium; type: in vivo; conditions: Galium, post-emergence, 240 h, 0 to 100 scale (0 no effect, 100 complete control), read-out: Plant response rating, Galium; for pest or weed control at 31 g/ha: 31 g ai/ha; for pest or weed control at 125 g/ha: 125 g ai/ha
rice (Oryza sativa) = assay: Test B flooded paddy test, rice; conditions: Oryza sativa, read-out: Plant response rating, Rice (0 to 100 scale, 0 is no effect, 100 is complete control)
[14] = system: ducksalad (Heteranthera limosa); assay: Test B flooded paddy test, ducksalad; conditions: Heteranthera limosa, read-out: Plant response rating, Ducksalad (0 to 100 scale, 0 is no effect, 100 is complete control)
[15] = system: barnyardgrass (Echinochloa crus-galli); assay: Test B flooded paddy test, barnyardgrass; conditions: Echinochloa crus-galli, read-out: Plant response rating, Barnyardgrass (0 to 100 scale, 0 is no effect, 100 is complete control)

`O=C1O[C@@H](CCC(F)(F)F)c2c(Oc3ncc(Cl)cn3)cccc21` [Compound 18, (3S)-4-[(5-Chloro-2-pyrimidinyl)oxy]-3-(3,3,3-trifluoropropyl)-1(3H)-isobenzofuranone] showed a pest or weed control at 31 g/ha [1] of 0%, a pest or weed control at 125 g/ha [1] of 0% and a pest or weed control at 31 g/ha (kochia (Kochia scoparia) [2]) of 0%. It also gave a pest or weed control at 125 g/ha (kochia (Kochia scoparia) [2]) of 0%, a pest or weed control at 31 g/ha [3] of 0% and a pest or weed control at 125 g/ha [3] of 0%. The pest or weed control at 31 g/ha [4] was 0%, the pest or weed control at 125 g/ha [4] was 0% and the pest or weed control at 31 g/ha [5] was 0%. For the same molecule, the pest or weed control at 125 g/ha [5] was 0%, the pest or weed control at 31 g/ha [6] was 0% and the pest or weed control at 125 g/ha [6] was 0%. It also gave a pest or weed control at 31 g/ha (kochia (Kochia scoparia) [7]) of 0%, a pest or weed control at 125 g/ha (kochia (Kochia scoparia) [7]) of 10% and a pest or weed control at 31 g/ha [8] of 0%. For the same molecule, the pest or weed control at 125 g/ha [8] was 0%, the pest or weed control at 31 g/ha [9] was 0% and the pest or weed control at 125 g/ha [9] was 0%. It also gave a pest or weed control at 31 g/ha [10] of 10%, a pest or weed control at 125 g/ha [10] of 20% and a plant injury at 31 g/ha [11] of 0%. For the same molecule, the plant injury at 125 g/ha [11] was 0%, the Corn plant response rating (crop injury, 0 = no effect, 100 = complete kill) at 31 g/ha (corn (Zea mays)) was 0% and the Corn plant response rating (crop injury, 0 = no effect, 100 = complete kill) at 125 g/ha (corn (Zea mays)) was 10%. It also gave a pest or weed control at 31 g/ha [12] of 0%, a pest or weed control at 125 g/ha [12] of 0% and a pest or weed control at 31 g/ha [13] of 0%. The pest or weed control at 125 g/ha [13] was 10%, the plant injury at 250 g/ha (rice (Oryza sativa)) was 0% and the pest or weed control at 250 g/ha [14] was 0%. It also gave a pest or weed control at 250 g/ha [15] of 0%.

Molecule `O=C1O[C@H](CCC(F)(F)F)c2c(Oc3ncc(Cl)cn3)cccc21` [Compound 19, (3R)-4-[(5-Chloro-2-pyrimidinyl)oxy]-3-(3,3,3-trifluoropropyl)-1(3H)-isobenzofuranone] has a pest or weed control at 31 g/ha [1] of 80%, a pest or weed control at 125 g/ha [1] of 100% and a pest or weed control at 31 g/ha (kochia (Kochia scoparia) [2]) of 90%. The pest or weed control at 125 g/ha (kochia (Kochia scoparia) [2]) was 100%, the pest or weed control at 31 g/ha [3] was 0% and the pest or weed control at 125 g/ha [3] was 60%. It also gave a pest or weed control at 31 g/ha [4] of 10%, a pest or weed control at 125 g/ha [4] of 90% and a pest or weed control at 31 g/ha [5] of 100%. It also gave a pest or weed control at 125 g/ha [5] of 100%, a pest or weed control at 31 g/ha [6] of 50% and a pest or weed control at 125 g/ha [6] of 100%. The pest or weed control at 31 g/ha (kochia (Kochia scoparia) [7]) was 80%, the pest or weed control at 125 g/ha (kochia (Kochia scoparia) [7]) was 100% and the pest or weed control at 31 g/ha [8] was 30%. For the same molecule, the pest or weed control at 125 g/ha [8] was 70%, the pest or weed control at 31 g/ha [9] was 80% and the pest or weed control at 125 g/ha [9] was 100%. It also gave a pest or weed control at 31 g/ha [10] of 100%, a pest or weed control at 125 g/ha [10] of 100% and a plant injury at 31 g/ha [11] of 20%. It also gave a plant injury at 125 g/ha [11] of 100%, a Corn plant response rating (crop injury, 0 = no effect, 100 = complete kill) at 31 g/ha (corn (Zea mays)) of 40% and a Corn plant response rating (crop injury, 0 = no effect, 100 = complete kill) at 125 g/ha (corn (Zea mays)) of 70%. The pest or weed control at 31 g/ha [12] was 100%, the pest or weed control at 125 g/ha [12] was 100% and the pest or weed control at 31 g/ha [13] was 90%. It also gave a pest or weed control at 125 g/ha [13] of 100%, a plant injury at 250 g/ha (rice (Oryza sativa)) of 50% and a pest or weed control at 250 g/ha [14] of 100%. The pest or weed control at 250 g/ha [15] was 60%.

In the case of `FC(F)(F)CC[C@H]1OCc2cccc(Oc3ncc(Cl)cn3)c21` [Compound 20, 5-Chloro-2-[[(3R)-1,3-dihydro-3-(3,3,3-trifluoropropyl)-4-isobenzofuranyl]oxy]-pyrimidine], the pest or weed control at 31 g/ha [1] is reported as 70%, the pest or weed control at 125 g/ha [1] is reported as 100% and the pest or weed control at 31 g/ha (kochia (Kochia scoparia) [2]) is reported as 100%. It also gave a pest or weed control at 125 g/ha (kochia (Kochia scoparia) [2]) of 100%, a pest or weed control at 31 g/ha [3] of 30% and a pest or weed control at 125 g/ha [3] of 100%. The pest or weed control at 31 g/ha [4] was 10%, the pest or weed control at 125 g/ha [4] was 60% and the pest or weed control at 31 g/ha [5] was 100%. For the same molecule, the pest or weed control at 125 g/ha [5] was 100%, the pest or weed control at 31 g/ha [6] was 40% and the pest or weed control at 125 g/ha [6] was 100%. It also gave a pest or weed control at 31 g/ha (kochia (Kochia scoparia) [7]) of 90%, a pest or weed control at 125 g/ha (kochia (Kochia scoparia) [7]) of 100% and a pest or weed control at 31 g/ha [8] of 30%. The pest or weed control at 125 g/ha [8] was 70%, the pest or weed control at 31 g/ha [9] was 30% and the pest or weed control at 125 g/ha [9] was 80%. The pest or weed control at 31 g/ha [10] was 100%, the pest or weed control at 125 g/ha [10] was 100% and the plant injury at 31 g/ha [11] was 20%. For the same molecule, the plant injury at 125 g/ha [11] was 90%, the Corn plant response rating (crop injury, 0 = no effect, 100 = complete kill) at 31 g/ha (corn (Zea mays)) was 30% and the Corn plant response rating (crop injury, 0 = no effect, 100 = complete kill) at 125 g/ha (corn (Zea mays)) was 50%. It also gave a pest or weed control at 31 g/ha [12] of 80%, a pest or weed control at 125 g/ha [12] of 100% and a pest or weed control at 31 g/ha [13] of 90%. The pest or weed control at 125 g/ha [13] was 100%, the plant injury at 250 g/ha (rice (Oryza sativa)) was 30% and the pest or weed control at 250 g/ha [14] was 100%. For the same molecule, the pest or weed control at 250 g/ha [15] was 90%.

From patent US11427549B2, “Pyrimidinyloxy benzo-fused compounds as herbicides” (FMC Corporation, priority 2017, dated 2022)
